From PubChem BioAssay (NCI)
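Cultured in 96-well plates, cells were exposed to test compound for 48 hours across five concentrations. Abbreviation: GI50, concentration required for 50% inhibition of growth. TGI denotes the concentration required for complete inhibition of growth.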

Legend:
Assay in all cases: NCI-60 cell line screen, 48 h
[1] = tested on: SN12C renal
[2] = tested on: HCT-116 colon
[3] = tested on: HCT-15 colon
[4] = tested on: DU-145 prostate
[5] = tested on: MOLT-4 leukemia
[6] = tested on: NCI-H522 lung
[7] = tested on: SF-539 CNS
[8] = tested on: UACC-62 melanoma
[9] = tested on: K-562 leukemia
[10] = tested on: HT29 colon
[11] = tested on: RPMI-8226 leukemia
[12] = tested on: UACC-257 melanoma
[13] = tested on: SK-MEL-5 melanoma
[14] = tested on: MCF7 breast
[15] = tested on: COLO 205 colon
[16] = tested on: MDA-MB-435
[17] = tested on: OVCAR-3 ovarian
[18] = tested on: NCI-H226 lung
[19] = tested on: HCC-2998 colon
[20] = tested on: MDA-MB-231 breast
[21] = tested on: T-47D breast
[22] = tested on: LOX IMVI melanoma
[23] = tested on: SW-620 colon
[24] = tested on: CCRF-CEM leukemia
[25] = tested on: MALME-3M melanoma
[26] = tested on: KM12 colon
[27] = tested on: NCI-H23 lung
[28] = tested on: OVCAR-8 ovarian
[29] = tested on: PC-3 prostate
[30] = tested on: M14 melanoma
[31] = tested on: SR leukemia
[32] = tested on: SK-MEL-2 melanoma
[33] = tested on: OVCAR-5 ovarian
[34] = tested on: HL-60(TB) leukemia
[35] = tested on: HS 578T breast

Compound: COc1cc2c3c(n(CCCN4CCCCC4)c(=O)c2cc1OC)-c1cc2c(cc1C3=O)OCO2
- GI50 [1]: 1.59 µM
- TGI [1]: 3.05 µM
- GI50 [2]: 0.15 µM
- TGI [2]: 0.309 µM
- GI50 [3]: 1.26 µM
- TGI [3]: 2.6 µM
- GI50 [4]: 1.37 µM
- TGI [4]: 2.68 µM
- GI50 [5]: 0.0423 µM
- TGI [5]: 2.02 µM
- GI50 [6]: 0.932 µM
- TGI [6]: 2.46 µM
- GI50 [7]: 1.46 µM
- TGI [7]: 2.83 µM
- GI50 [8]: 1.38 µM
- TGI [8]: 2.83 µM
- GI50 [9]: 0.179 µM
- TGI [9]: 0.499 µM
- GI50 [10]: 1.28 µM
- TGI [10]: 2.67 µM
- GI50 [11]: 0.333 µM
- TGI [11]: 1.47 µM
- GI50 [12]: 1.76 µM
- TGI [12]: 3.96 µM
- GI50 [13]: 1.6 µM
- TGI [13]: 3.01 µM
- GI50 [14]: 0.145 µM
- TGI [14]: 2.05 µM
- GI50 [15]: 1.11 µM
- TGI [15]: 2.43 µM
- GI50 [16]: 1.66 µM
- TGI [16]: 3.22 µM
- GI50 [17]: 1.63 µM
- TGI [17]: 3.02 µM
- GI50 [18]: 1.54 µM
- TGI [18]: 3.69 µM
- GI50 [19]: 1.22 µM
- TGI [19]: 2.47 µM
- GI50 [20]: 1.21 µM
- TGI [20]: 2.59 µM
- GI50 [21]: 1.58 µM
- TGI [21]: 3.56 µM
- GI50 [22]: 0.716 µM
- TGI [22]: 2.15 µM
- GI50 [23]: 0.193 µM
- TGI [23]: 1.35 µM
- GI50 [24]: 0.13 µM
- TGI [24]: 0.988 µM
- GI50 [25]: 1.65 µM
- TGI [25]: 3.45 µM
- GI50 [26]: 1.51 µM
- TGI [26]: 2.85 µM
- GI50 [27]: 1.53 µM
- TGI [27]: 3.01 µM
- GI50 [28]: 1.68 µM
- TGI [28]: 4.17 µM
- GI50 [29]: 1.26 µM
- TGI [29]: 2.69 µM
- GI50 [30]: 1.59 µM
- TGI [30]: 3.05 µM
- GI50 [31]: 0.143 µM
- TGI [31]: 0.893 µM
- GI50 [32]: 12.4 µM
- TGI [32]: 28.3 µM
- GI50 [33]: 1.84 µM
- TGI [33]: 3.29 µM
- GI50 [34]: 0.341 µM
- TGI [34]: 0.965 µM
- GI50 [35]: 2.07 µM
- TGI [35]: 4.77 µM
